Experimental data: US4786644A, “1-aryl-3-quinolinecarboxamide” (Hoechst-Roussel Pharmaceuticals Inc., priority 1987, dated 1988)

Experiments:
[1] = tested on: phenyl-p-quinone writhing; test: phenyl-p-quinone writhing assay in mice (analgesic); format: in vivo, mouse (male, Charles River, CD-1); details: for Analgesic Activity, % Inhibition of Writhing: mouse, screening dose of 20 mg/kg, s.c.
Procedure: The procedure employed to determine analgetic utility is a modification of the phenyl-p-quinone writhing assay in mice, a standard assay for analgetic activity [Proc. Soc. Exptl. […] The solution is administered to the subject mice intraperitoneally at a dose of 10 ml per kg of body weight. A characteristic "writhe", an inward rotation of one or more feet with twisting and turning of the trunk, drawing in of the abdominal wall, lordosis and arching of the back, is produced.
A total of 28 male mice (Charles River, CD-1), weighing 18 to 30 grams, are employed for a time response. The subject animals receive food and water ad libitum. Test compounds are dissolved in distilled water, or suspended in distilled water containing one drop of a suitable surfactant, such as Tween-80.
Four groups of five animals (20 animals) are given the test compound subcutaneously (s.c.) or orally (p.o.) at 15, 30, 45 and 60 minutes prior to administration of the phenyl-p-quinone. A control group (2 animals per group) receive an equal volume of the vehicle. After the administration of the phenyl-p-quinone, the mice are placed separately in one liter beakers, and after five minutes, are observed for ten minutes. The number of writhes for each animal is recorded. The following formula is used to compute the percent inhibition: [formula]
A dose range determination is run in the same manner as the time response except 10 animals per group are tested at the peak time of test drug activity. Fifty animals, 4 test drug groups, and a vehicle control are employed. Animals are dosed and tested in a randomized manner. The time period with the greatest percent of inhibition is considered the peak time.

[2] = tested on: carrageenan-induced rat paw edema; test: carrageenan-induced rat paw edema antiinflammatory assay; format: in vivo; details: screening dose of 100 mg/kg, p.o.
[3] = tested on: adjuvant-induced polyarthritis syndrome; test: adjuvant-induced polyarthritis syndrome in rats; format: in vivo, rat (male Charles River-Wistar Lewis); details: rat, p.o., daily for 21 days
Procedure: This activity was measured by a procedure similar to that described by C. M. Pearson and F. D. Wood, Arthritis and Rheumatism, 2, 440 (1959).
Groups of 10 male Charles River-Wistar Lewis rats weighing 150 to 175 g were individually housed and maintained on a regular rat chow diet. Water was given ad libitum. The adjuvant was prepared by suspending 75 mg of Mycobacterium butyricum (Difco Laboratories, Detroit, Mich.) in 10 ml of white paraffin oil with continuous stirring for 2 hours at room temperature prior to administration. Test compounds are prepared by suspending the drug in water, adding one drop of Tween 80 per 10 ml of suspension, and homogenizing. The adjuvant suspension (0.1 ml) was injected into the footpad of the left hind paw of the rat. Test compound suspensions were adminstered orally (10 ml/kg) the day before adjuvant suspension injection and the administration was continued daily for 21 days. One group of ten rats was used for the test drug. Standard, adjuvant-injected control and non-injected control groups were run along with the test drug. Control animals received vehicle (10 ml/kg). Injected and non-injected paw volumes were determined on the day the adjuvant suspension was given, and on subsequent days thereafter (usually days 5, 10, 18, and 21) by the method of C. A. Winter, et al., Proc. Soc. Exp. Biol. Med., 111, 544 (1962).
The percent inhibition of paw volume (injected and non-injected paw) were calculated by the following formula: [formula] The results of the adjuvant-induced polyarthritis syndrome test procedure for several of the compounds of this invention are provided in Table 2.

Row | Structure (SMILES) | Analgesic Activity, % Inhibition of Writhing [1] | Inhibition of Carrageenan-Induced Rat Paw Edema, Percent Inhibition [2] | percent inhibition of paw volume, Adjuvant-Treated Paw ([3]; screening dose of 50 mg/kg) | percent inhibition of paw volume, Non-Injected Paw ([3]; screening dose of 50 mg/kg) | other results
1 | Cc1ccc(NC(=O)c2cn(-c3ccccc3)c3ccccc3c2=O)nc1 [Example 20, 1,4-Dihydro-N-(5-methyl-2-pyridyl)-4-oxo-1-phenyl-3-quinolinecarboxamide] | 30% | – | – | – | –
2 | O=C(Nc1cnccn1)c1cn(-c2ccccc2)c2ccccc2c1=O [Example 17, 1,4-Dihydro-4-oxo-1-phenyl-N-(2-pyrazinyl)-3-quinolinecarboxamide] | – | -23% | -7% | -23% | –
3 | Cc1csc(NC(=O)C2=C(O)c3ccccc3N(c3ccccc3)C2)n1 [Example 10, 1,2-Dihydro-4-hydroxy-N-(4-methyl-2-thiazolyl)-1-phenyl-3-quinolinecarboxamide] | 36% | – | – | – | –
4 | O=C(Nc1cnccn1)C1=C(O)c2ccccc2N(c2ccccc2)C1 [Example 9, 1,2-Dihydro-4-hydroxy-1-phenyl-N-(2-pyrazinyl)-3-quinolinecarboxamide] | 31% | -24% | – | – | –
5 | CC(=O)Oc1ccccc1C(=O)O [Aspirin, reference compound] | – | -29% | -22% | -33% | ED50 ([1]; Mus musculus, sc, read-out: ED50 (dose effecting 50% inhibition of writhing)): 32.8 mg/kg
6 | O=C(Nc1ccccc1)C1=C(O)c2ccccc2N(c2ccccc2)C1 [Example 8, 1,2-Dihydro-4-hydroxy-1-phenyl-N-phenyl-3-quinolinecarboxamide] | – | -28% | -5% | -26% | –
7 | O=C(Nc1cccc(Cl)c1)c1nc(-c2ccccc2)c2ccccc2c1O [Example 3, N-(3-Chlorophenyl)-4-hydroxy-1-phenyl-3-isoquinolinecarboxamide] | 51% | – | – | – | –
8 | Cc1cccc(NC(=O)c2cn(-c3ccccc3)c3ccccc3c2=O)n1 [Example 19, 1,4-Dihydro-N-(6-methyl-2-pyridyl)-4-oxo-1-phenyl-3-quinolinecarboxamide] | 35% | – | – | – | –
9 | Cc1csc(NC(=O)c2cn(-c3ccccc3)c3ccccc3c2=O)n1 [Example 18, 1,4-Dihydro-N-(4-methyl-2-thiazolyl)-4-oxo-1-phenyl-3-quinolinecarboxamide] | – | -28% | -12% | -26% | –
10 | O=C(Nc1ccccn1)c1cn(-c2ccccc2)c2ccccc2c1=O [Example 13, 1,4-Dihydro-4-oxo-1-phenyl-N-(2-pyridyl)-3-quinolinecarboxamide] | – | -25% | – | – | –
11 | O=C(Nc1ccc(Br)cn1)C1=C(O)c2ccccc2N(c2ccccc2)C1 [Example 12, N-(5-Bromo-2-pyridyl)-1,2-dihydro-4-hydroxy-1-phenyl-3-quinolinecarboxamide] | 39% | – | -2% | -22% | –
12 | O=C(Nc1ccccn1)c1nc(-c2ccccc2)c2ccccc2c1O [Example 1, 4-Hydroxy-1-phenyl-N-(2-pyridyl)-3-isoquinolinecarboxamide] | – | – | – | – | percent inhibition of paw volume, Adjuvant-Treated Paw ([3]; screening dose of 45 mg/kg): +1%; percent inhibition of paw volume, Non-Injected Paw ([3]; screening dose of 45 mg/kg): -17%
13 | O=C(Nc1ccc(Cl)cn1)c1nc(-c2ccccc2)c2ccccc2c1O [Example 4, N-(5-Chloro-2-pyridyl)-4-hydroxy-1-phenyl-3-isoquinolinecarboxamide] | 57% | – | -22% | -38% | –
